Cc1ncc([N+](=O)[O-])n1CCO
solubility (mole fraction)
Details | in chloroform | in ethanol | in ethyl acetate | in isopropanol | in methanol | in n-butanol | in water
293.15 K | 0.00128 | 0.00433 | 0.00299 | 0.00396 | 0.00641 | 0.00533 | 0.000872
297.55 K | 0.0016 | 0.00596 | 0.00395 | 0.00462 | 0.0076 | 0.00576 | –
298.45 K | – | – | – | – | – | – | 0.00104
302.55 K | 0.00226 | 0.00641 | 0.00495 | 0.00559 | 0.00925 | 0.00692 | –
306.95 K | – | – | – | – | – | – | 0.00146
307.55 K | 0.00288 | 0.00763 | 0.00605 | 0.00615 | 0.0112 | 0.00914 | –
308.65 K | – | – | – | – | – | – | 0.00152
312.35 K | 0.0036 | 0.00978 | 0.00713 | 0.00794 | 0.0138 | 0.0111 | –
313.15 K | – | – | – | – | – | – | 0.00181
317.85 K | 0.00418 | 0.0121 | 0.00887 | 0.0102 | 0.017 | 0.0132 | –
318.05 K | – | – | – | – | – | – | 0.00216
322.35 K | – | 0.0145 | 0.0121 | 0.0125 | 0.0201 | 0.0163 | –
322.95 K | – | – | – | – | – | – | 0.00265
